Results on 15 compounds are retold here after ChEMBL document CHEMBL5291721, “A preclinical secondary pharmacology resource illuminates target-adverse drug reaction associations of marketed drugs” (Nat Commun, 2023).

The target in test [1] is Glutamate receptor ionotropic, NMDA 1 (Rattus norvegicus, UniProt P35439).
Test [2] addresses Gamma-aminobutyric acid receptor subunit alpha-1 (Rattus norvegicus, UniProt P62813).
The target of test [3] is Motilin receptor (Homo sapiens, UniProt O43193).
Test [4] has as its target Cannabinoid receptor 1 (Homo sapiens, UniProt P21554). The test is classed as functional, cell-based.
Test [5] deals with T1, Gastrin/cholecystokinin type B receptor (Homo sapiens, UniProt P32239).
T1 sequence (P32239 whole entry): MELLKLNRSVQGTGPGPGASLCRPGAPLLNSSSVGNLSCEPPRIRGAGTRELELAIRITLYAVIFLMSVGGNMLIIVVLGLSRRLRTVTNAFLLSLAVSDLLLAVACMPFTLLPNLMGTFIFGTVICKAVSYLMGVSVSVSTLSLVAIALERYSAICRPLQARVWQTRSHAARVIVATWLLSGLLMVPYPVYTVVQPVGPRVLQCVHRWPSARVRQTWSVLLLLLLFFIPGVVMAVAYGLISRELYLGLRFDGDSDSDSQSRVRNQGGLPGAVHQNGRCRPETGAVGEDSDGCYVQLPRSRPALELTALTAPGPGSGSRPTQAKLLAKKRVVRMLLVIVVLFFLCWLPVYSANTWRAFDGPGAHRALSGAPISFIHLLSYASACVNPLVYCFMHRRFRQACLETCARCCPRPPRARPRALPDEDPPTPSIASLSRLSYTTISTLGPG

Test [6] addresses T2, Alpha-1A adrenergic receptor (Homo sapiens, UniProt P35348).
T2 sequence (P35348 whole entry): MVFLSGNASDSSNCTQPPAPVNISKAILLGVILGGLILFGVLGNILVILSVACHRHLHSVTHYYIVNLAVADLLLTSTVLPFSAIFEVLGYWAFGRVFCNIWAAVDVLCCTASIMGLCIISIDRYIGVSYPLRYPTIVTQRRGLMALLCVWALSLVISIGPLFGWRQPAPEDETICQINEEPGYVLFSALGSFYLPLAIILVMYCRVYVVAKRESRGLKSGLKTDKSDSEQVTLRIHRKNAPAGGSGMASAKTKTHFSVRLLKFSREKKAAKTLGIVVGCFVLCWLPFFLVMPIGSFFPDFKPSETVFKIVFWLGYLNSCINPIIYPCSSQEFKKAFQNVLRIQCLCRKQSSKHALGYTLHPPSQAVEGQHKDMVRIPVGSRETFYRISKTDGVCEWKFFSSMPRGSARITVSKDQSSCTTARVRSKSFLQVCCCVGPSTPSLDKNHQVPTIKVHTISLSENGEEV
The class given is functional, cell-based.

The target in test [7] is T3, Neuropeptide Y receptor type 1 (Homo sapiens, UniProt P25929).
T3 sequence (P25929 whole entry): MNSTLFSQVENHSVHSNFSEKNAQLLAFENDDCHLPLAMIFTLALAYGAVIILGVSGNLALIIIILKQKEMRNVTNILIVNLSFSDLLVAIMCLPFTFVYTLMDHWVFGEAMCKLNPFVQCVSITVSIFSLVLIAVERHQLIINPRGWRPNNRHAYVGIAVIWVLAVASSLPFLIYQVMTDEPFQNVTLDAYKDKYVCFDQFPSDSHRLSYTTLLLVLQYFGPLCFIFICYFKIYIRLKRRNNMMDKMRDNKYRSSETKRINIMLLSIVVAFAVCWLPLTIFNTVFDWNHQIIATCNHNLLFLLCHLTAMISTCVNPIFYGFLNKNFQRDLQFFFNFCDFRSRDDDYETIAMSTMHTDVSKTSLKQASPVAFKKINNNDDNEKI

In test [8] the target is T4, Amine oxidase [flavin-containing] A (Homo sapiens, UniProt P21397).
T4 sequence (P21397 whole entry): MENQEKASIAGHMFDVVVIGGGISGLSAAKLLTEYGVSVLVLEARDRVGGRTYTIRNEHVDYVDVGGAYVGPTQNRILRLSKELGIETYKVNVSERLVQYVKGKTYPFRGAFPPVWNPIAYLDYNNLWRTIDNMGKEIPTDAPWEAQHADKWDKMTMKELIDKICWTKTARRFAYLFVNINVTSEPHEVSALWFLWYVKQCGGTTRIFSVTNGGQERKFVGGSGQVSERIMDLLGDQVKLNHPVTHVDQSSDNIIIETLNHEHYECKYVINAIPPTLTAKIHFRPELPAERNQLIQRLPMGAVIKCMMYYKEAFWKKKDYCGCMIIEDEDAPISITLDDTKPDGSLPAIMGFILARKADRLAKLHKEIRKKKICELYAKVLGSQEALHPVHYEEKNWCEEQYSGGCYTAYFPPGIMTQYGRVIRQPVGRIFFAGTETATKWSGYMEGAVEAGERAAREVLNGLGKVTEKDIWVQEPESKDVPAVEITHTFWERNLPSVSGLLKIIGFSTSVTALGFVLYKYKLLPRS
The test is classed as functional.

Test [9] concerns the target D(3) dopamine receptor (Homo sapiens, UniProt P35462).
Test [10] concerns the target 3',5'-cyclic-AMP phosphodiesterase 4D (Homo sapiens, UniProt Q08499). The class given is functional.

In general, AC50 refers to the concentration giving half of the maximal activity seen.
Note: assay procedure not described here.

3',5'-cyclic-AMP phosphodiesterase 4D, sequence (Q08499 whole entry): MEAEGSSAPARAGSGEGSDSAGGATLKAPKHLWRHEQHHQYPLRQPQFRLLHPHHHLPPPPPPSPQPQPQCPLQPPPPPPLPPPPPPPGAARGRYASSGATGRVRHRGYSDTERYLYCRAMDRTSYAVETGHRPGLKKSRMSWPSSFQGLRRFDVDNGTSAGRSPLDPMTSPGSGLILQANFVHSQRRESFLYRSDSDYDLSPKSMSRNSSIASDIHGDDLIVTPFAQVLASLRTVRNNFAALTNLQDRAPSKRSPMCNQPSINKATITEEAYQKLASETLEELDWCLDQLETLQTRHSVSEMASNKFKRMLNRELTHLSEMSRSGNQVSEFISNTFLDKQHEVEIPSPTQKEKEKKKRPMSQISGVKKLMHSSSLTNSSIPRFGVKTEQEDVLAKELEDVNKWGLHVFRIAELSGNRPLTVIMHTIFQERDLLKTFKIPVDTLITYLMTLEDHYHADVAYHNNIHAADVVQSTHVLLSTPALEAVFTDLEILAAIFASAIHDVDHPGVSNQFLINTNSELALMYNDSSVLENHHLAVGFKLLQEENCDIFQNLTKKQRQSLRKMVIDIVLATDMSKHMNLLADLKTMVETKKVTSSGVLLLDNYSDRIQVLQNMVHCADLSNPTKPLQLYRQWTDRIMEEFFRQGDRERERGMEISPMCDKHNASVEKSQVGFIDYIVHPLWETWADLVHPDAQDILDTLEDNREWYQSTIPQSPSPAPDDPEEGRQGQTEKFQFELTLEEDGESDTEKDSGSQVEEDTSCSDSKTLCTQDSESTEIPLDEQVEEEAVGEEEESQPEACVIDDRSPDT
Gamma-aminobutyric acid receptor subunit alpha-1, sequence (P62813 whole entry): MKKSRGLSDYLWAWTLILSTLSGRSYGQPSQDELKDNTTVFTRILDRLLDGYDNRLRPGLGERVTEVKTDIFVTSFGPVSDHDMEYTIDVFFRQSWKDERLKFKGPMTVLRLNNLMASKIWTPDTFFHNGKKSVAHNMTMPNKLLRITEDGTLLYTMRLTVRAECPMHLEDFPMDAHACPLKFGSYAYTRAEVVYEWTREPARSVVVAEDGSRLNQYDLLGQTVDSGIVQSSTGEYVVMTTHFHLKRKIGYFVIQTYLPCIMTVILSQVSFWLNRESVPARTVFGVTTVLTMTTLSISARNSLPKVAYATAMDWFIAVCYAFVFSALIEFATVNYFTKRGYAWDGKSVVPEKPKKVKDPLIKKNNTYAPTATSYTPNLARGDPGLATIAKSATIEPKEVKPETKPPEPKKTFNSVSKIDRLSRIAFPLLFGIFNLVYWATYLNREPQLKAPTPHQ
Cannabinoid receptor 1, sequence (P21554 whole entry): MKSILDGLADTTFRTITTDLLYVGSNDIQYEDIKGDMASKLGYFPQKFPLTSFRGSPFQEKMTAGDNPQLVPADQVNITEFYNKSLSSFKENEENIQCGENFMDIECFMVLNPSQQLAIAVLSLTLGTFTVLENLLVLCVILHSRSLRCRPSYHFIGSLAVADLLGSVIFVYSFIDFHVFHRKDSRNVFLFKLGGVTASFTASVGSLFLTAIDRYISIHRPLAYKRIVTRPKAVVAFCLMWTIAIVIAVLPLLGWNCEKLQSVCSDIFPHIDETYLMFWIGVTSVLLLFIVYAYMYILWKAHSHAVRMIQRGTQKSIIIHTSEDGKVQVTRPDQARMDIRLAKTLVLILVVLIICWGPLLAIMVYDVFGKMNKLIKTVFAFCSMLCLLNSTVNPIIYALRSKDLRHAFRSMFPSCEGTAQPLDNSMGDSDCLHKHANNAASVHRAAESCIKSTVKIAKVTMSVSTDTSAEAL
D(3) dopamine receptor, sequence (P35462 whole entry): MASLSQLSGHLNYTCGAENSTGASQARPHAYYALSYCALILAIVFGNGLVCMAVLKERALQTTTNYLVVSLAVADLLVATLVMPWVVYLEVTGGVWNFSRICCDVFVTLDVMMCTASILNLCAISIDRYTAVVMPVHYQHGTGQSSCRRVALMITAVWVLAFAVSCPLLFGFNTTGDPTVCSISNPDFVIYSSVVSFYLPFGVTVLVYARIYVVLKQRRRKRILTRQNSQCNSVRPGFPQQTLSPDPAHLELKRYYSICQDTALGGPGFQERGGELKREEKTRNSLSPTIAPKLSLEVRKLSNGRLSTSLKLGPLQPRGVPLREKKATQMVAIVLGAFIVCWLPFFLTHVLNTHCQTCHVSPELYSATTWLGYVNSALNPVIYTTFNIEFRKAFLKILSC
Motilin receptor, sequence (O43193 whole entry): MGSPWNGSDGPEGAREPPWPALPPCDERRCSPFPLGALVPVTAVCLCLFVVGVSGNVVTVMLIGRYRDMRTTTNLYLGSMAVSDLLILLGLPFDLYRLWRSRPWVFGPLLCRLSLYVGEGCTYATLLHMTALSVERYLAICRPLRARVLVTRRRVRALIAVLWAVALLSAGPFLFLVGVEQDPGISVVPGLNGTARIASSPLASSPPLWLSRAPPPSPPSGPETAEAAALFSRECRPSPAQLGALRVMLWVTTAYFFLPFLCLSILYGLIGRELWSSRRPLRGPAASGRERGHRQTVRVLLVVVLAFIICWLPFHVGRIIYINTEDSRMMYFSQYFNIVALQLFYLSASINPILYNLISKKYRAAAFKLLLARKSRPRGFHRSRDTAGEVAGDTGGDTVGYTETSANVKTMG

Turning to `CC(/C=C1\SC(=S)N(CC(=O)O)C1=O)=C\c1ccccc1`, the AC50 in [1], in test [2], in test [3], in [4], in [5] and in test [6] was more than 30 µM throughout. For the same compound, the AC50 in [7] and in [8] was more than 30 µM each time.

Regarding `CNCC[C@@H](Oc1ccccc1C)c1ccccc1` [ATOMOXETINE], the AC50 was more than 30 µM in test [3]; more than 30 µM in test [4]; more than 30 µM in [5]; 26 µM in [9]; more than 30 µM in test [6]; more than 30 µM in test [10]. In addition, the concentration at half-maximal activity (AC50) in [8] is more than 30 µM.

In the case of `CCc1oc2ccccc2c1C(=O)c1cc(Br)c(O)c(Br)c1` [BENZBROMARONE], the half-maximal activity concentration (AC50) in [1] was more than 10 µM; in test [2] it was more than 10 µM; in [3], more than 30 µM; in test [4] it was more than 30 µM; in test [5], more than 30 µM; in test [9], more than 30 µM. Moreover, the half-maximal activity concentration (AC50) in test [6] and in test [8] was more than 30 µM throughout.

For `CO/N=C(\C(=O)N[C@@H]1C(=O)N2C(C(=O)O)=C(COC(N)=O)CS[C@H]12)c1ccco1` [CEFUROXIME], the half-maximal activity concentration (AC50) in test [1], in [3], in test [4], in test [5], in [9] and in [6] was more than 30 µM throughout. For the same compound, the half-maximal activity concentration (AC50) in [7], in test [10] and in [8] was more than 30 µM throughout.

`COC(=O)[C@H](c1ccccc1Cl)N1CCc2sccc2C1` [CLOPIDOGREL]: the half-maximal activity concentration (AC50) in test [1], in test [2], in [3], in test [4], in test [5] and in test [9] was more than 30 µM each time. Moreover, the AC50 in test [6], in test [7], in test [10] and in test [8] was more than 30 µM each time.

Take `CN1C[C@H](C(=O)N[C@]2(C)O[C@@]3(O)[C@@H]4CCCN4C(=O)[C@H](Cc4ccccc4)N3C2=O)C[C@@H]2c3cccc4[nH]cc(c34)C[C@H]21` [DIHYDROERGOTAMINE]: the AC50 was more than 10 µM in [1]; more than 10 µM in [2]; more than 10 µM in test [3]; more than 30 µM in test [4]; more than 30 µM in test [5]; 0.055 µM in test [9]. The AC50 in test [6] was 1.7 µM; in test [7], more than 30 µM; in test [10], 6.7 µM; in test [8] it was more than 10 µM.

On to `Nc1nc(O)c2ncn(COC(CO)CO)c2n1` [GANCICLOVIR], for which the AC50 in test [1], in [2], in [3], in test [4], in test [5] and in [9] was more than 30 µM each time. Further, the half-maximal activity concentration (AC50) in [6], in test [7], in test [10] and in test [8] was more than 30 µM each time.

As for `Cc1cnc(NC(=O)C2=C(O)c3ccccc3S(=O)(=O)N2C)s1` [MELOXICAM], the AC50 is more than 10 µM in test [1]; more than 10 µM in test [2]; more than 10 µM in [3]; more than 30 µM in test [4]; more than 30 µM in test [5]; more than 10 µM in test [9]. Besides, the AC50 in [6] was more than 30 µM; in test [7], more than 30 µM; in test [10], more than 10 µM; in test [8], more than 10 µM.

In the case of `CC[C@@H](CO)NC(=O)[C@@H]1C=C2c3cccc4[nH]cc(c34)C[C@H]2N(C)C1` [METHYLERGONOVINE], the half-maximal activity concentration (AC50) was more than 30 µM in [1]; more than 30 µM in test [2]; more than 30 µM in [3]; more than 30 µM in test [4]; more than 30 µM in test [5]; 0.29 µM in test [9]. The half-maximal activity concentration (AC50) in test [6] is 0.02 µM; in test [7], more than 30 µM; in test [10], more than 30 µM; in test [8] it was more than 30 µM.

Regarding `CN(C)c1cc(CNCC(C)(C)C)c(O)c2c1C[C@H]1C[C@H]3[C@H](N(C)C)C(O)=C(C(N)=O)C(=O)[C@@]3(O)C(O)=C1C2=O` [OMADACYCLINE], the concentration at half-maximal activity (AC50) in test [1] is more than 30 µM; in test [2], more than 30 µM; in test [3], more than 30 µM; in [4] it was more than 30 µM; in test [5], more than 30 µM; in test [9], 27 µM. The half-maximal activity concentration (AC50) in test [6], in [7], in test [10] and in test [8] was more than 30 µM in each case.

With `COc1ccnc(C[S+]([O-])c2nc3ccc(OC(F)F)cc3[nH]2)c1OC` (centres undefined) [PANTOPRAZOLE], the AC50 in test [1] is more than 10 µM; in [2], more than 10 µM; in [3], more than 10 µM; in test [4], more than 30 µM; in [5] it was more than 30 µM; in test [9], more than 10 µM. In addition, the AC50 in test [6] was more than 30 µM; in [7] it was more than 30 µM; in test [10], more than 30 µM; in test [8], more than 10 µM.

Regarding `COc1ccc(Cc2nccc3cc(OC)c(OC)cc23)cc1OC` [PAPAVERINE], the AC50 in [1], in test [2], in test [3], in test [4], in [5] and in test [9] was more than 30 µM throughout. In addition, the AC50 in [6], in [7] and in test [8] was more than 30 µM each time.

Take `O=C1NC(=O)C(c2ccccc2)(c2ccccc2)N1` [PHENYTOIN]: the half-maximal activity concentration (AC50) in [1] is more than 10 µM; in test [2], more than 10 µM; in [3], more than 30 µM; in test [4] it was more than 30 µM; in test [5], more than 30 µM; in [9] it was more than 30 µM. Further, the AC50 in test [6], in test [7], in test [10] and in [8] was more than 30 µM throughout.

Turning to `O=C(Nc1c(Cl)cncc1Cl)c1ccc(OC(F)F)c(OCC2CC2)c1` [ROFLUMILAST], the AC50 in [1], in [2], in test [3], in test [4], in [5] and in [9] was more than 30 µM in each case. The AC50 in [6], in test [7] and in [8] was more than 30 µM throughout.

As for `CCCN(CCC)CCc1cccc2c1CC(=O)N2` [ROPINIROLE], the AC50 in test [1] was more than 10 µM; in test [2], more than 10 µM; in test [3], more than 30 µM; in test [4] it was more than 30 µM; in test [5] it was more than 30 µM; in test [6], 6.93 µM. Besides, the AC50 in test [7], in test [10] and in test [8] was more than 30 µM each time.
